The text below walks through data of PubChem BioAssay (NCI).

Among the test systems are ACHN renal; HS 578T breast; IGROV1 ovarian; LOX IMVI melanoma; M14 melanoma; MDA-MB-231 breast; SNB-19 CNS; T-47D breast; TK-10 renal; UACC-62 melanoma.
What all share (experiment): NCI anticancer screen, dose series, 48 h

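Step 1: Grow cells in 96-well plates. Step 2: Expose to compound for 48 hours at 5 concentrations. Step 3: Interpolate endpoints linearly; if unreached, use highest concentration. Abbreviation: GI50, concentration required for 50% inhibition of growth. At the TGI there is no net growth.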

As to `O=C1CCCC2C3CC(CN12)C1CCCCN1C3` (centres undefined), the TGI in the assay on ACHN renal, in the assay on HS 578T breast, in the assay with IGROV1 ovarian, with LOX IMVI melanoma, with M14 melanoma and in the assay with MDA-MB-231 breast was more than 100 µM each time. Besides, the TGI with SNB-19 CNS, in the assay with T-47D breast, in the assay on TK-10 renal and with UACC-62 melanoma was more than 100 µM each time.

For `C=CCSSCC=C`, the TGI with ACHN renal was more than 100 µM; in the assay on HS 578T breast, 97.4 µM; in the assay with IGROV1 ovarian it was more than 100 µM; with LOX IMVI melanoma, more than 38.6 µM; in the assay on M14 melanoma, more than 100 µM; in the assay with MDA-MB-231 breast it was more than 100 µM. Besides, the TGI with SNB-19 CNS, with T-47D breast, in the assay with TK-10 renal and in the assay on UACC-62 melanoma was more than 100 µM throughout.

As for `COc1c(OC/C=C(\C)CCC=C(C)C)ccc2ccc(=O)oc12`, the TGI with ACHN renal, in the assay on HS 578T breast, with IGROV1 ovarian, with LOX IMVI melanoma, with M14 melanoma and with MDA-MB-231 breast was more than 100 µM in each case. Moreover, the TGI in the assay with SNB-19 CNS, in the assay on T-47D breast, in the assay on TK-10 renal and in the assay with UACC-62 melanoma was more than 100 µM in each case.

Turning to `O=C1OCc2cc3cc4c(cc3c(-c3ccc5c(c3)OCO5)c21)OCO4` (tested in a mixture with another compound), the TGI in the assay with HS 578T breast is 80.9 µM; in the assay with IGROV1 ovarian, 66.7 µM; in the assay on LOX IMVI melanoma it was more than 100 µM; in the assay with M14 melanoma, 32 µM; in the assay on MDA-MB-231 breast, 15.6 µM; in the assay on SNB-19 CNS, more than 100 µM. Further, the figures for the TGI in the assay on T-47D breast, in the assay on TK-10 renal and in the assay with UACC-62 melanoma were more than 100 µM, 50.8 µM and 68 µM, respectively.

As for `CN1CC(CNC(=O)OCc2ccccc2)CC2c3cccc4c3c(cn4C)CC21` (centres undefined), the GI50 in the assay on ACHN renal was 2.29 µM; with HS 578T breast it was 1.99 µM; with IGROV1 ovarian it was 1.77 µM; with LOX IMVI melanoma it was 1.64 µM; in the assay on M14 melanoma, 2.14 µM; with MDA-MB-231 breast, 1.65 µM. Besides, the GI50 with SNB-19 CNS is 1.8 µM; in the assay with T-47D breast, 2.26 µM; with TK-10 renal, 1.92 µM; in the assay on UACC-62 melanoma, 1.66 µM. In addition, the TGI in the assay with ACHN renal turned out to be 5.58 µM; in the assay with HS 578T breast, 6.96 µM; in the assay on IGROV1 ovarian, 4.49 µM; in the assay with LOX IMVI melanoma, 3.21 µM; in the assay on M14 melanoma it was 4.68 µM; with MDA-MB-231 breast, 3.28 µM. The TGI was determined as 3.99 µM in the assay with SNB-19 CNS, 4.67 µM in the assay with T-47D breast, 3.67 µM with TK-10 renal and 3.17 µM in the assay on UACC-62 melanoma.

As to `c1ccc(C[N+]23CN4CN(CN(C4)C2)C3)cc1`, the TGI with ACHN renal was 87.9 µM; in the assay on HS 578T breast it was more than 100 µM; in the assay on IGROV1 ovarian, more than 100 µM; in the assay on LOX IMVI melanoma, 48.2 µM; in the assay on M14 melanoma, 39.8 µM; with MDA-MB-231 breast it was 49.8 µM. Moreover, the TGI is 71.2 µM in the assay on SNB-19 CNS, 87.4 µM in the assay with T-47D breast, more than 100 µM in the assay on TK-10 renal and 32.1 µM with UACC-62 melanoma.

`O=C1OC2CC=CC1C2` (centres undefined): the TGI in the assay with IGROV1 ovarian, with LOX IMVI melanoma, in the assay with SNB-19 CNS and in the assay with UACC-62 melanoma was more than 100 µM in each case.

As for `COc1cc(/C=C/C(=O)CC(=O)/C=C/c2ccc(O)c(OC)c2)ccc1O`, the TGI turned out to be 28.9 µM in the assay with ACHN renal; 58.5 µM with HS 578T breast; 26.7 µM in the assay with IGROV1 ovarian; 15.5 µM in the assay with LOX IMVI melanoma; 16 µM in the assay with M14 melanoma; 55.7 µM with MDA-MB-231 breast. Also, the TGI with SNB-19 CNS was determined as 15.7 µM; with T-47D breast, 46.9 µM; with TK-10 renal, 30.6 µM; in the assay on UACC-62 melanoma, 20.6 µM.

As for `O=C(/C=C/c1ccccc1)N1CCCCC1`, the TGI in the assay on ACHN renal, in the assay with HS 578T breast, with IGROV1 ovarian, with LOX IMVI melanoma, with M14 melanoma and in the assay on MDA-MB-231 breast was more than 100 µM each time. In addition, the TGI with SNB-19 CNS, in the assay with T-47D breast, in the assay on TK-10 renal and in the assay with UACC-62 melanoma was more than 100 µM throughout.

As to `Br/C(=N\Nc1nn[nH]n1)c1ccncc1`, the TGI with ACHN renal, with HS 578T breast, in the assay on IGROV1 ovarian, in the assay with LOX IMVI melanoma, in the assay with M14 melanoma and with MDA-MB-231 breast was more than 100 µM throughout. The TGI in the assay on SNB-19 CNS, in the assay on T-47D breast, with TK-10 renal and in the assay with UACC-62 melanoma was more than 100 µM each time.

For `C=C1C(=O)OC2CC1CCC1(C)OC1CCC(C)=CCCC2(C)O` (centres undefined), the TGI with IGROV1 ovarian worked out at 15.8 µM; in the assay with LOX IMVI melanoma, 8.71 µM; in the assay on SNB-19 CNS it was 39.9 µM; in the assay on UACC-62 melanoma, 10 µM.

For the molecule `O=C(COc1ccc(Cl)c(Cl)c1)N(Cc1ccccc1)Cc1ccc[n+](Cc2ccc(Cl)cc2S(=O)(=O)F)c1`, the TGI in the assay on ACHN renal is more than 100 µM; in the assay on HS 578T breast, more than 100 µM; in the assay on IGROV1 ovarian it was more than 100 µM; with M14 melanoma, more than 100 µM; in the assay on MDA-MB-231 breast, 31.9 µM; in the assay on SNB-19 CNS, more than 100 µM. For the same molecule, the TGI in the assay with T-47D breast, with TK-10 renal and with UACC-62 melanoma was more than 100 µM throughout.

Regarding `Cc1cc(C)nc(SCCc2cccc[n+]2C)n1`, the TGI in the assay on ACHN renal, with HS 578T breast, with IGROV1 ovarian, in the assay on LOX IMVI melanoma, with M14 melanoma and with MDA-MB-231 breast was more than 100 µM each time. Moreover, the TGI with SNB-19 CNS, in the assay on T-47D breast, in the assay with TK-10 renal and in the assay on UACC-62 melanoma was more than 100 µM throughout.

Regarding `CCCC(=O)O.CCCC(=O)O.CCCC(=O)O.CCCC(=O)O.[Rh].[Rh]`, the GI50 was 0.0451 µM in the assay on ACHN renal; 0.157 µM with HS 578T breast; 0.189 µM in the assay on IGROV1 ovarian; 0.104 µM with LOX IMVI melanoma; 0.0569 µM in the assay with M14 melanoma; 0.0322 µM in the assay with MDA-MB-231 breast. In addition, the GI50 was 0.0312 µM in the assay with T-47D breast and 0.0343 µM in the assay with UACC-62 melanoma. Besides, the TGI is 0.212 µM in the assay on ACHN renal; 13 µM in the assay with HS 578T breast; 0.73 µM in the assay with IGROV1 ovarian; 0.225 µM in the assay on LOX IMVI melanoma; 0.195 µM in the assay with M14 melanoma; 0.108 µM with MDA-MB-231 breast. The TGI in the assay on T-47D breast amounted to 0.0985 µM; with UACC-62 melanoma it was 0.142 µM.

Regarding `CC(=O)NNC(=O)C1CCCCN1` (centres undefined), the TGI in the assay on ACHN renal, in the assay with HS 578T breast, with IGROV1 ovarian, in the assay on LOX IMVI melanoma, in the assay on M14 melanoma and in the assay on MDA-MB-231 breast was more than 100 µM throughout. Also, the TGI in the assay with SNB-19 CNS and in the assay with TK-10 renal was more than 100 µM throughout.

For the molecule `O=C(Oc1ccc(Cl)cc1[N+](=O)[O-])c1ccccc1`, the TGI with ACHN renal, in the assay on IGROV1 ovarian, in the assay with LOX IMVI melanoma, in the assay on M14 melanoma, with SNB-19 CNS and with TK-10 renal was more than 100 µM in each case. The TGI with UACC-62 melanoma was more than 100 µM.

Regarding `SC1CCCN(Cc2ccccc2)C1` (centres undefined), the TGI in the assay on ACHN renal was more than 100 µM; in the assay on HS 578T breast, more than 100 µM; in the assay on IGROV1 ovarian, more than 100 µM; in the assay with LOX IMVI melanoma it was 34.7 µM; in the assay on M14 melanoma it was 36.9 µM; in the assay with MDA-MB-231 breast, more than 100 µM. Besides, the TGI is more than 100 µM in the assay with SNB-19 CNS, 94.1 µM in the assay with T-47D breast, more than 100 µM with TK-10 renal and more than 100 µM in the assay on UACC-62 melanoma.

Consider `COc1ccc(OC)c(CC(C)N)c1` (centres undefined), for which the TGI with ACHN renal, with IGROV1 ovarian, with LOX IMVI melanoma, with M14 melanoma, with SNB-19 CNS and with TK-10 renal was more than 100 µM each time. Further, the TGI in the assay on UACC-62 melanoma is more than 100 µM.
